{"source": "patent US20110269786A1", "about": "“TREATMENT OF MAJOR ADVERSE CARDIAC EVENTS AND ACUTE CORONARY SYNDROME IN DIABETIC PATIENTS USING SECRETORY PHOSPHOLIPASE A2 (SPLA2) INHIBITOR OR SPLA2 INHIBITOR COMBINATION THERAPIES” (priority 2010, published 2011)", "key": {"[1]": {"conditions": "in vivo; cited from earlier work"}, "[2]": {"conditions": "cited from earlier work"}, "[3]": {"assay": "Clinical trial in post-ACS subjects: MACE occurrence in ITT population", "assay_type": "in vivo, human", "conditions": "at 16 weeks", "description": "A-002 was delivered in the form of two 250 mg tablets. In addition, all subjects received atorvastatin at 80 mg once daily via oral administration of a single tablet.\nSubjects were randomized within 96 hours of hospital admission for an index ACS event, or within 96 hours of index ACS event diagnosis if already hospitalized. Prior to randomization, subjects were screened for pertinent medical history, and baseline levels of LDL and hs-CRP were measured. Baseline sPLA2 levels were also measured in a random subset of subjects. Percutaneous revascularization, if required or planned for a particular subject, was performed prior to randomization.\nSubjects were excluded if they were receiving statin therapy at maximum recommended or tolerated dosage (i.e., 40-80 mg QD for atorvastatin, fluvastatin, lovastatin, pravastatin, or simvastatin, or 20-40 mg QD rosuvastatin) at the time of the index ACS event. […]\nFor purposes of this study, MACEs included all-cause mortality, non-fatal MI, documented UA requiring urgent hospitalization, revascularization occurring 60 days or more after the initial index ACS event, and non-fatal stroke. […] This final evaluation included at least a complete physical examination, a 12-lead ECG reading, measurement of LDL, hs-CRP, sPLA2, and IL-6 levels, and recordation of any MACEs during the study period."}, "[4]": {"conditions": "80 mg atorvastatin; subjects that had recently experienced an ACS event; cited from earlier work"}, "[5]": {"assay": "Clinical trial in post-ACS subjects: MACE occurrence in diabetic subpopulation", "conditions": "cumulative at 16 weeks", "experimental": "625 adult (18 years of age or older) human subjects who had recently experienced an index ACS event (UA, NSTEMI, or STEMI) were randomized to receive placebo or A-002 at 500 mg once daily via oral administration in a double-blinded manner. A-002 was delivered in the form of two 250 mg tablets. In addition, all subjects received atorvastatin at 80 mg once daily via oral administration of a single tablet.\nSubjects were excluded if they were receiving statin therapy at maximum recommended or tolerated dosage (i.e., 40-80 mg QD for atorvastatin, fluvastatin, lovastatin, pravastatin, or simvastatin, or 20-40 mg QD rosuvastatin) at the time of the index ACS event. During the trial, subjects were prevented from using any lipid-lowering therapy other than 80 mg atorvastatin and/or A-002.\nFor purposes of this study, MACEs included all-cause mortality, non-fatal MI, documented UA requiring urgent hospitalization, revascularization occurring 60 days or more after the initial index ACS event, and non-fatal stroke. Subjects were evaluated at various timepoints after randomization and at study completion. Each evaluation included measurement of serum LDL levels and recordation of any MACEs or less severe adverse events occurring since the previous evaluation. In addition, certain evaluation periods included measurement of one or more of hs-CRP, sPLA2, IL-6, and/or other biomarker levels, vital signs, weight, and/or waist circumference. […] This final evaluation included at least a complete physical examination, a 12-lead ECG reading, measurement of LDL, hs-CRP, sPLA2, and IL-6 levels, and recordation of any MACEs during the study period."}}}
{"smiles": "CCc1c(C(=O)C(N)=O)c2c(OCC(=O)OC)cccc2n1Cc1ccccc1", "note": "[A-002, [[3-(2-Amino-1,2-dioxoethyl)-2-ethyl-1-(phenylmethyl)-1H-indol-4-yl]oxy]acetic acid methyl ester]", "values": [{"measurement": "absorption and conversion to active molecule", "setting": "[1]", "result": "rapidly absorbed and hydrolyzed to the active A-001 molecule"}, {"measurement": "terminal half-life (t1/2)", "setting": "[1]", "result": "approximately ten"}, {"measurement": "effect on total cholesterol, LDL-C, total LDL-C particle, and small LDL-C particle levels", "setting": "[2]; once- or twice-daily administration, stable CVD population, diabetic and high baseline LDL-C subpopulations", "result": "decreases"}, {"measurement": "effect on levels of inflammatory markers such as hs-CRP and sPLA2", "setting": "[2]; stable populations", "result": "decreases"}]}
{"smiles": "CC(C)c1c(C(=O)Nc2ccccc2)c(-c2ccccc2)c(-c2ccc(F)cc2)n1CC[C@@H](O)C[C@@H](O)CC(=O)O", "note": "[Placebo (atorvastatin only), atorvastatin]", "values": [{"measurement": "% of subjects who experienced a MACE", "setting": "[3]", "result": 6.1, "unit": "%"}, {"measurement": "absolute reduction in death, non-fatal MI, cardiac arrest with resuscitation, or worsening symptomatic myocardial ischemia", "setting": "[4]", "result": 2.6, "unit": "%"}, {"measurement": "relative reduction in death, non-fatal MI, cardiac arrest with resuscitation, or worsening symptomatic myocardial ischemia", "setting": "[4]", "result": 16, "unit": "%"}, {"measurement": "Death, % of subjects", "setting": "[5]", "result": 3.4, "unit": "%"}, {"measurement": "Death, number of subjects", "setting": "[5]", "result": 3}, {"measurement": "MI, % of subjects", "setting": "[5]", "result": 0.0, "unit": "%"}, {"measurement": "MI, number of subjects", "setting": "[5]", "result": 0}, {"measurement": "Revascularization ≧ 60 days, % of subjects", "setting": "[5]", "result": 0.0, "unit": "%"}, {"measurement": "Revascularization ≧ 60 days, number of subjects", "setting": "[5]", "result": 0}, {"measurement": "Stroke, % of subjects", "setting": "[5]", "result": 0.0, "unit": "%"}, {"measurement": "Stroke, number of subjects", "setting": "[5]", "result": 0}, {"measurement": "Total MACEs, % of subjects", "setting": "[5]", "result": 6.9, "unit": "%"}, {"measurement": "UA requiring hospitalization, % of subjects", "setting": "[5]", "result": 3.4, "unit": "%"}, {"measurement": "UA requiring hospitalization, number of subjects", "setting": "[5]", "result": 3}]}
